{
  "source": "patent US20140112957A1",
  "about": "“Analegisic (Sebacoyl dinalbuphine ester) PLGA controlled release formulation form” (OLIVER YAO-PU HU, priority 2012, published 2014)",
  "key": {"[1]": {"test": "oil-in-water coefficient (logP) of nalbuphine and pro-soft drugs", "assay_type": "physicochemical"}, "[2]": {"test": "drug saturated solubility in water", "assay_type": "physicochemical"}, "[3]": {"settings": "PLGA microspheres, subcutaneous injection, 50 mg/rabbit; cited from earlier work"}},
  "data": [
    {"compound": "CCCCCCCCCC(=O)Oc1ccc2c3c1O[C@H]1[C@@H](O)CC[C@@]4(O)[C@@H](C2)N(CC2CCC2)CC[C@]314", "note": "[Nalbuphine decanoate]", "values": [
      {"measurement": "logP", "setting": "[1]", "result": 3.30},
      {"measurement": "Aqueous solubility", "setting": "[2]", "result": 0.67, "unit": "µg/mL"},
      {"measurement": "time the effective serum concentration lasted", "setting": "[3]", "result": 4, "unit": "days"}
    ]},
    {"compound": "CC(C)(C)C(=O)Oc1ccc2c3c1O[C@H]1[C@@H](O)CC[C@@]4(O)[C@@H](C2)N(CC2CCC2)CC[C@]314", "note": "[Nalbuphine pivalate]", "values": [
      {"measurement": "logP", "setting": "[1]", "result": 1.42},
      {"measurement": "Aqueous solubility", "setting": "[2]", "result": 33.67, "unit": "µg/mL"},
      {"measurement": "time the effective serum concentration lasted", "setting": "[3]", "result": 4, "unit": "days"}
    ]},
    {"compound": "O=C(CCCCCCCCC(=O)Oc1ccc2c3c1O[C@H]1[C@@H](O)CC[C@@]4(O)[C@@H](C2)N(CC2CCC2)CC[C@]314)Oc1ccc2c3c1O[C@H]1[C@@H](O)CC[C@@]4(O)[C@@H](C2)N(CC2CCC2)CC[C@]314", "note": "[Sebacoyl dinalbuphine ester]", "values": [
      {"measurement": "logP", "setting": "[1]", "result": 3.15},
      {"measurement": "Aqueous solubility", "setting": "[2]", "result": "<0.25", "unit": "µg/mL"}
    ]},
    {"compound": "CCC(=O)Oc1ccc2c3c1O[C@H]1[C@@H](O)CC[C@@]4(O)[C@@H](C2)N(CC2CCC2)CC[C@]314", "note": "[Nalbuphine propionate]", "values": [
      {"measurement": "logP", "setting": "[1]", "result": 1.05},
      {"measurement": "Aqueous solubility", "setting": "[2]", "result": 44.67, "unit": "µg/mL"},
      {"measurement": "time the effective serum concentration lasted", "setting": "[3]", "result": 4, "unit": "days"}
    ]},
    {"compound": "CCCCCCC(=O)Oc1ccc2c3c1O[C@H]1[C@@H](O)CC[C@@]4(O)[C@@H](C2)N(CC2CCC2)CC[C@]314", "note": "[Nalbuphine enanthate]", "values": [
      {"measurement": "logP", "setting": "[1]", "result": 1.94},
      {"measurement": "Aqueous solubility", "setting": "[2]", "result": 3.00, "unit": "µg/mL"}
    ]}
  ]
}
